Experiments:
[1] = molecular target: T1, recombinant Δ4, 5 glycuronidase (Δ4,5^Δ20) (Pedobacter heparinus, UniProt C6Y1N7); assay: Kinetic parameters of Δ4, 5 glycuronidase for disaccharide substrates (loss of absorbance at 232 nm, Michaelis-Menten fit); assay type: biochemical, F. heparinum; settings: conditions for measuring substrate kinetics
T1 sequence (C6Y1N7 21-402): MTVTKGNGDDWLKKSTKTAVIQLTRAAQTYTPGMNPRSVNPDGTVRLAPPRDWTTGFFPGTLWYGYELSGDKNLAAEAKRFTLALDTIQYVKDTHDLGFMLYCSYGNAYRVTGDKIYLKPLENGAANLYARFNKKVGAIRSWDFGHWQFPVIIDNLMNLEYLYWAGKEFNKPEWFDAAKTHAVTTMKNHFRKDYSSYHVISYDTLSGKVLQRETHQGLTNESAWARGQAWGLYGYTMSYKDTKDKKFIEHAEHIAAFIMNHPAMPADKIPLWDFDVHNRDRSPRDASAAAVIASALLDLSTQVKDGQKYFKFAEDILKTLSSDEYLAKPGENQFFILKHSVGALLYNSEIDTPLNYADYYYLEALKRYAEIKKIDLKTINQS
Procedure: Assay for enzyme activity and determination of kinetic parameters. Standard reactions were carried out at 30° C. and included 100 mM sodium phosphate buffer, pH 6.4, 50 mM NaCl, 500 μM disaccharide substrate and 200 nM enzyme in a 100 μl reaction volume. Hydrolysis of heparin disaccharides was determined spectrophotometrically by measuring the loss of the Δ4, 5 chromophore measured at 232 nm Substrate hydrolysis was calculated using the following molar extinction coefficients empirically determined for each disaccharide substrate: ΔUHNAc, ε232=4,524; ΔUHNAc6S, ε232=4,300; ΔUHNS, ε232=6,600; ΔUHNS,6S, ε232=6,075; ΔUHNH26S, ε232=4,826; ΔU2SHNS, ε232=4,433. Initial rates (Vo) were extrapolated from linear activities representing <10% substrate turnover and fit to pseudo first-order kinetics. For kinetic experiments, disaccharide concentration for each respective substrate was varied from 48 to 400 μM concentrations. Km and kcat values were extrapolated from Vo vs. [S] curves fit to the Michaelis Menten equation by a non-linear, least squares regression.
The specificity of the Δ4, 5 glycuronidase acting on various glycosaminoglycan disaccharide substrates was investigated. The various substrates examined included both heparin and chondroitin disaccharides as well as an hyaluronadate. In particular, we considered the possibility of any structural discriminations pertaining to glycosidic linkage position (1→4 vs. 1→3) and relative sulfation state within the disaccharide. For each substrate, kinetic parameters were determined based on substrate saturation profiles that fit Michaelis-Menten assumptions (FIG. 8).

Δ4, 5 glycuronidase [2] = assay: Detection of Δ4, 5 glycuronidase activity by capillary electrophoresis on heparinase-digested heparin; assay type: biochemical, F. heparinum
Procedure: Detection of Δ4, 5 glycuronidase activity by capillary electrophoresis. 200 μg of heparin (Celsus Laboratories) was subject to exhaustive heparinase digestion as described [Venkataraman, G., Shriver, Z., Raman, R., and Sasisekharan, R., 1999, Science 286, 537-42] with certain modifications that included a 50 mM PIPES buffer, pH 6.5 with 100 mM NaCl in a 100 μl reaction volume. Following heparinase treatment, 25 picomoles of Δ4, 5 glycuronidase was added to one-half of the original reaction (pre-equilibrated at 30° C.). 20 μl aliquots were removed at 1 minute and 30 minutes and activity quenched by heating at 95° C. for 10 minutes. 20 μl of the minus Δ4, 5 control (also heated for 10 minutes) was used as the 0 time point. Disaccharide products were resolved by capillary electrophoresis run for 25 minutes under positive polarity mode as previously described [Rhomberg, A. J., Ernst, S., Sasisekharan, R., and Biemann, K., 1998, Proc Natl Acad Sci USA 95, 4176-81].
In this manner, the Δ4, 5 should be very useful in assessing the composition of disaccharides resulting from prior heparinase treatment of heparin/heparan sulfate. For this particular experiment, we pre-treated 200 μg of heparin with a heparinase cocktail. This exhaustive digestion was then directly followed by a relatively short (1 minute) or long (30 minute) Δ4, 5 glycuronidase treatment carried out under optimal reaction conditions. The disaccharide products were then resolved by capillary electrophoresis. The electrophoretic mobility profile for the Δ4, 5 treated saccharides were then directly compared to the untreated control (i.e., heparinase treatment only) run under identical conditions (FIG. 9). 7 disaccharide peaks were present in the capillary electrophoretogram corresponding to the heparinase only control (A.). A structural assignment for each one of these peaks was made based on previously established compositional analyses. […] Predictably, the relative amplitude and area of these peaks remained the same, over the entire timecourse of the Δ4, 5 preincubation. This unchanging result extended to 18 hours. On the other hand, peaks corresponding to disaccharides lacking the 2-O sulfate were eliminated.

Δ4, 5 glycuronidase [3] = assay: Extended timecourse hydrolysis of non-heparin disaccharides; assay type: biochemical, F. heparinum; settings: after approximately 18 hours, considerably higher enzyme concentrations
Procedure: None of the non-heparin disaccharides were hydrolyzed under the conditions for measuring substrate kinetics. […] At the same time, these disaccharides were slowly hydrolyzed to varying degrees when the enzyme reactions were conducted over a much longer timecourse (>12 hours) and at considerably higher enzyme concentrations. After approximately 18 hours, greater than 80% of monosulfated chondroitin disaccharide (ΔUGalNac6S) was hydrolyzed, whereas the non-sulfated chondroitin (ΔUGalNAc) and the hyaluronan disaccharide (ΔUH) were still present at approximately 40% and 65%, respectively. The importance of the linkage position is, therefore, not absolute. The apparently positive effect of chondroitin 6-O-sulfation within the galactosamine is consistent with our results for the heparin substrates and provides further evidence for the influence of this position in dictating substrate specificity.

[4] = Pilot expression of the full-length enzyme in E. coli: solubility and activity
From the text: Using PCR, we cloned from the F. heparinum genome both the full-length enzyme and the “mature” enzyme lacking the N-terminal 20 amino acid signal sequence (Δ4,5^Δ20) into a T7-based expression plasmid. Cloning into pET28a permitted the expression of the glycuronidase as an N-terminal 6× His-tag fusion protein. Pilot expression studies focused on the full-length enzyme. In these initial experiments, we examined several different induction conditions such as temperature, time and length of induction, and even IPTG concentrations.

Molecule: CC(=O)N[C@H]1C(O)O[C@H](COS(=O)(=O)O)[C@@H](O[C@@H]2OC(C(=O)O)=C[C@H](O)[C@H]2O)[C@@H]1O (stereo partly shown) [ΔUHNAc, 6S]
- substrate status / substrate preference [1]: best substrates
- hydrolysis after one minute Δ4, 5 treatment (in words) (Δ4, 5 glycuronidase [2]): essentially hydrolyzed

Molecule: O=C(O)C1=C[C@H](O)[C@@H](OS(=O)(=O)O)[C@H](O[C@H]2[C@H](O)[C@@H](NS(=O)(=O)O)[C@@H](O)O[C@@H]2CO)O1 [ΔU2SHNS]
- substrate status / substrate preference [1]: not a substrate

Molecule: CC(=O)NC1C(O)OC(CO)C(O)C1OC1OC(C(=O)O)=CC(O)C1O (stereo not shown) [ΔUGalNAc]
- disaccharide still present (Δ4, 5 glycuronidase [3]): approximately 40%

Molecule: CC(=O)NC1C(O)OC(CO)C(O)C1OC1OC(C(=O)O)=CC(O)C1O (stereo not shown) [ΔUH]
- disaccharide still present (Δ4, 5 glycuronidase [3]): ~65%

Molecule: O=C(O)C1=C[C@H](O)[C@@H](O)[C@H](O[C@H]2[C@H](O)[C@@H](NS(=O)(=O)O)C(O)O[C@@H]2CO)O1 (stereo partly shown) [ΔUHNS]
- substrate status / substrate preference [1]: less good as substrates
- hydrolysis by 30 minutes Δ4, 5 treatment (Δ4, 5 glycuronidase [2]): completely depleted
- hydrolyzed after 1 minute Δ4, 5 treatment (Δ4, 5 glycuronidase [2]): ~50%

Molecule: N[C@H]1C(O)O[C@H](COS(=O)(=O)O)[C@@H](O[C@@H]2OC(C(=O)O)=C[C@H](O)[C@H]2O)[C@@H]1O (stereo partly shown) [ΔUHNH2, 6S]
- substrate status / substrate preference [1]: less good as substrates

Molecule: O=C(O)C1=C[C@H](O)[C@@H](O)[C@H](O[C@H]2[C@H](O)[C@@H](NS(=O)(=O)O)C(O)O[C@@H]2COS(=O)(=O)O)O1 (stereo partly shown) [ΔUHNS, 6S]
- substrate status / substrate preference [1]: roughly in the middle
- hydrolysis by 30 minutes Δ4, 5 treatment (Δ4, 5 glycuronidase [2]): completely depleted
- hydrolyzed after 1 minute Δ4, 5 treatment (Δ4, 5 glycuronidase [2]): approximately 75%

Molecule: CC(=O)N[C@H]1C(O)O[C@H](COS(=O)(=O)[O-])[C@H](O)[C@@H]1OC1OC(C(=O)[O-])=C[C@H](O)[C@H]1O.[Na+].[Na+] (stereo partly shown) [ΔUGalNac6S]
- disaccharide hydrolyzed (Δ4, 5 glycuronidase [3]): greater than 80%

Molecule: CC(=O)N[C@H]1C(O)O[C@H](CO)[C@@H](O[C@@H]2OC(C(=O)O)=C[C@H](O)[C@H]2O)[C@@H]1O (stereo partly shown) [ΔUHNac]
- substrate status / substrate preference [1]: best substrates

B1: full-length enzyme: full-length 402 amino acid Δ4, 5 glycuronidase, SEQ ID NO:3, expressed as N-terminal 6× His-tag fusion (protein, listed as Flavobacterium heparinum)
chain: MKSLLSAFVATIALIGSANGMTVTKGNGDDWLKKSTKTAVIQLTRAAQTYTPGMNPRSVNPDGTVRLAPPRDWTTGFFPGTLWYGYELSGDKNLAAEAKRFTLALDTIQYVKDTHDLGFMLYCSYGNAYRVTGDKIYLKPLENGAANLYARFNKKVGAIRSWDFGHWQFPVIIDNLMNLEYLYWAGKEFNKPEWFDAAKTHAVTTMKNHFRKDYSSYHVISYDTLSGKVLQRETHQGLTNESAWARGQAWGLYGYTMSYKDTKDKKFIEHAEHIAAFIMNHPAMPADKIPLWDFDVHNRDRSPRDASAAAVIASALLDLSTQVKDGQKYFKFAEDILKTLSSDEYLAKPGENQFFILKHSVGALLYNSEIDTPLNYADYYYLEALKRYAEIKKIDLKTINQS
modifications: N-terminal 6xHis tag
- solubility on recombinant expression ([4]; N-terminal 6× His-tag fusion, all induction conditions examined): nearly exclusively as an insoluble fraction
- activity of partially purified, solubilised enzyme ([4]; solubilised with detergents (e.g., CHAPS), salt, glycerol): largely inactive
